Experimental data reported in patent EP4692072A1, “PHOTOCHROMIC COMPOUND, PROPARGYL ALCOHOL COMPOUND, CURABLE COMPOSITION, OPTICAL ARTICLE, LENS, AND SPECTACLES” (TOKUYAMA CORPORATION, priority 2023, dated 2024).

Columns and labels:
[1] = Photochromic properties of photochromic cured product prepared by kneading method; format: physicochemical; settings: 0.106 mmol per 100 g monomer; for A23: 1 mm cured product, 23°C color optical density ε(300)-ε(0); for Maximum absorption wavelength: 1 mm thiourethane cured product, after color development
Method: • [1] Maximum Absorption Wavelength (λmax): The maximum absorption wavelength after color development, measured using a spectrophotometer (instantaneous multichannel photodetector MCPD3000) manufactured by Otsuka Electronics Co., Ltd. was used as an indicator for the color tone during the color development. • [2] 23°C Color Optical Density (A23): A difference between an absorbancy measured after light irradiation at 23°C for 300 seconds {ε(300)} and an absorbancy without light irradiation ε(0) at the maximum absorption wavelength was used as an indicator for the color optical density. […] 23°C color fading half-life [τ1/2 (sec.)]: A time required for the absorbancy of the sample at the maximum absorption wavelength to decrease to 1/2 of {ε(300)-ε(0)} when the light irradiation was terminated after the light irradiation at 23°C for 300 seconds, was used as an indicator for the color fading speed. The shorter this time, the higher the color fading speed. • [4] Residual rate (A120/A0×100): The obtained photochromic plastic lens was subjected to accelerated deterioration using a xenon weather meter X25 manufactured by Suga Test Instruments Co., Ltd. for 120 hours. Subsequently, the color optical density was evaluated before and after the test, then a color optical density before the test (A0) and a color optical density after the test (A120) were measured, and a ratio (A120/A0) was defined as a residual rate. The residual rate was used as an indicator for a color developing durability. The higher the residual rate, the higher the color developing durability. The results of Examples 26, 50, and Comparative Examples 1 to 8 are summarized in Table 1, and the results of Examples 27 to 49 are summarized in Tables 2 and 3.
First, the photochromic compound obtained in Example 1, additives, and a polymerizable compound were mixed to obtain a curable composition.
As the polymerizable compound, a combination of the following polymerizable monomers was used. • 1,3-bis(isocyanatomethyl)cyclohexane: 36.7 parts by mass Pentaerythritol tetrakis(3-mercaptopropionate): 39.4 parts by mass • Polyoxyethylene polyoxypropylene lauryl ether (Wonder Surf 140 manufactured by Aoki Oil Industrial Co., Ltd.): 17.4 parts by mass • 1-decanethiol: 2.8 parts by mass • RX-1 adjusted according to the method described in Patent Document 13: 3.8 parts by mass
Note that the photochromic compound was added to the curable composition so that the amount of the photochromic compound was 0.106 mmol based on 100 g of the total amount of the polymerizable monomer. The following additives were used: Dimethyltin dichloride • : 0.05 part by mass • Irganox 245: 0.1 part by mass • 2-ethylhexyl 4-methoxycinnamate: 0.6 part by mass
The prepared curable composition was thoroughly defoamed, then injected into a glass mold having a 1 mm gap, and polymerized by cast polymerization. The polymerization was carried out in an air furnace while gradually raising the temperature from 27°C to 120°C over 18 hours. After the polymerization, the cured product was removed from the glass mold to obtain a photochromic cured product having a thickness of 1 mm. The obtained photochromic cured product was evaluated in the same manner as in Example 26.
(Examples 85 to 99, and Comparative Example 14 to 18) Photochromic cured products were prepared using photochromic compounds presented in Tables 6 and 7 in the same manner as in Example 84. The results of Examples 84 and 85 and Comparative Examples 14 to 18 are summarized in Table 6, and the results of Examples 86 to 99 are summarized in Table 7.

[2] = Photochromic properties of photochromic laminate (plastic lens) prepared by coating method; format: physicochemical; settings: 40 µm photochromic layer on thiourethane lens, 0.25 mmol compound per 100 g monomers, after color development
Outline: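 Compound at 0.25 mmol per 100 g methacrylate monomers in a 40 µm spin-coated layer on a primed 2 mm thiourethane lens, photocured under N2, then heated 110°C 1 h. Spectrophotometer read-out after 300 s irradiation at 23°C: λmax, colour density, fading half-life; residual rate after 120 h xenon ageing.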

Row | Compound | A23 [1] | Maximum absorption wavelength [1] | Maximum absorption wavelength [2] | other results
1 | CCCC1(CCC)c2ccccc2-c2c1c1c(c3cc(OC)c(-c4ccc(OC)cc4OC)cc23)OC(c2ccc(C)cc2)(c2ccc(N(C)c3ccccc3)cc2)C=C1 (stereo not drawn) [Example 19] | 0.87 - | 496 nm | 494 nm | A23 ([1]; listed as Formula (80)): 1.15 -; Maximum absorption wavelength ([1]; listed as Formula (80)): 610 nm; Maximum absorption wavelength ([2]; listed as Formula (80)): 604 nm
2 | CCCCC1(CCCC)c2cc(-c3ccc(OC(C)C)cc3)ccc2-c2c1c1c(c3cc(OC)ccc23)OC(c2ccc(N(C)c3ccccc3)cc2)(c2ccc(OC)c(F)c2)C=C1 (stereo not drawn) [Example 21] | 0.62 - | 490 nm | 489 nm | A23 ([1]; listed as Formula (83)): 1.25 -; Maximum absorption wavelength ([1]; listed as Formula (83)): 616 nm; Maximum absorption wavelength ([2]; listed as Formula (83)): 609 nm
3 | CCCC1(CCC)c2ccccc2-c2c1c1c(c3cc(OC)c(-c4ccc(N(C)c5ccccc5)cc4)cc23)OC(c2ccc(C)cc2)(c2ccc(N(C)c3ccccc3)cc2)C=C1 (stereo not drawn) [Example 24] | 1.32 - | 505 nm | 504 nm | A23 ([1]; listed as Formula (86)): 1.31 -; Maximum absorption wavelength ([1]; listed as Formula (86)): 607 nm; Maximum absorption wavelength ([2]; listed as Formula (86)): 599 nm
4 | CCN(c1ccc(OC)cc1)c1ccc(C2(c3ccc(OC)cc3)C=Cc3c4c(c5cc(-c6ccc(N7CCOCC7)cc6)c(OC)cc5c3O2)-c2ccccc2C4(C)C)cc1 (stereo not drawn) [Example 25] | 0.88 - | 505 nm | 505 nm | A23 ([1]; listed as Formula (88)): 0.96 -; Maximum absorption wavelength ([1]; listed as Formula (88)): 613 nm; Maximum absorption wavelength ([2]; listed as Formula (88)): 605 nm
5 | COCCOCCOCCOCCC1(CCOCCOCCOCCOC)c2cc(C(F)(F)F)ccc2-c2c1c1c(c3cc(OC)c(OC)cc23)OC(c2ccc(OC)cc2)(c2ccc(N(C)c3ccccc3)cc2)C=C1 (stereo not drawn) [Example 51] | 0.46 - | 486 nm | 482 nm | A23 ([1]; listed as Formula (89)): 0.45 -; Maximum absorption wavelength ([1]; listed as Formula (89)): 612 nm; Maximum absorption wavelength ([2]; listed as Formula (89)): 603 nm
6 | CCCC1(CCC)c2cc(OC(F)(F)F)ccc2-c2c1c1c(c3cc(OC)c(Sc4c(C)cccc4C)cc23)OC(c2ccc(N(C)c3ccccc3)cc2)(c2ccc(OC)c(OC)c2)C=C1 (stereo not drawn) [Example 57] | 0.86 - | 496 nm | 493 nm | A23 ([1]; listed as Formula (110)): 0.88 -; Maximum absorption wavelength ([1]; listed as Formula (110)): 625 nm; Maximum absorption wavelength ([2]; listed as Formula (110)): 615 nm

Second part, led by results:

Row | A23 [1] | Maximum absorption wavelength [1] | Maximum absorption wavelength [2] | Compound | other results
7 | 0.59 - | 496 nm | 492 nm | COCCN(c1ccccc1)c1ccc(C2(c3ccc4c(c3)OCCO4)C=Cc3c4c(c5cc6c(cc5c3O2)SC(C)(C)O6)-c2ccccc2C42CCC3(CCCCC3)CC2)cc1 (stereo not drawn) [Example 14] | A23 ([1]; listed as Formula (71)): 0.65 -; Maximum absorption wavelength ([1]; listed as Formula (71)): 590 nm; Maximum absorption wavelength ([2]; listed as Formula (72)): 586 nm
8 | 0.47 - | 475 nm | 472 nm | CCC1(CC)CCC2(CC1)c1cc(OC(F)(F)F)ccc1-c1c2c2c(c3cc(OC)ccc13)OC(c1ccc(N(C)c3ccccc3)cc1)(c1ccc(OC)c(C)c1)C=C2 (stereo not drawn) [Example 16] | A23 ([1]; listed as Formula (77)): 0.86 -; Maximum absorption wavelength ([1]; listed as Formula (77)): 593 nm; Maximum absorption wavelength ([2]; listed as Formula (77)): 584 nm
9 | 1.02 - | 479 nm | 477 nm | COCCCCC1(CCCCOC)c2ccccc2-c2c1c1c(c3cc(-c4ccc(OC)cc4OC)c(OC)cc23)OC(c2ccc(N(C)c3ccccc3)cc2)(c2ccc3c(c2)CCO3)C=C1 (stereo not drawn) [Example 62] | A23 ([1]; listed as Formula (124)): 1.11 -; Maximum absorption wavelength ([1]; listed as Formula (124)): 594 nm; Maximum absorption wavelength ([2]; listed as Formula (124)): 587 nm
